Laboratory results published in patent publication US20250312320A1, “METHOD AND TREATMENT FOR OSTEOARTHRITIS AND DISEASES OF CHONDROCYTE HYPERTROPHY” (The Royal Veterinary College, priority 2022, published 2025).

Legend:
ATDC5 micromasses = experiment: RNA sequencing of BI1347 treated ATDC5 micromasses; type: cell-based, mouse; conditions: 1 μM vs DMSO
Experimental: 2.7×10^5 ATDC5 cells were seeded in a 10 μl micromasses and differentiated in the presence of 1 μM BI1347 or DMSO control for 7 days before RNA extraction as previously described. Two wells were pooled per extraction and treatment conditions were set up in triplicate.
Total RNA quantification and integrity was determined via Bioanalyzer 2100 (Agilent) and RNA samples with an integrity number above 9.0 were processed for RNA sequencing.
The RNA library was formed by polyA capture using poly-T oligo attached magnetic beads and subsequently reverse transcribed for cDNA synthesis and library construction. The library was then sequenced using the Illumina PE150 technology and clean reads with high quality data were taken forward for downstream analysis. Paired-end clean reads were aligned to the Mus Musculus reference genome and reads numbers mapped to each gene. Fragments Per Kilobase of transcript sequence per Millions base pairs sequenced (FPKM) of each gene was calculated based on the length of the gene and reads count mapped to the gene.
Differential expression analysis of BI1347 treatment versus DMSO control was performed. Genes with an adjusted P-value≤0.05 and a fold change≥2 were considered differentially expressed.
Cluster analysis was carried out on all the differentially expressed genes in each group and biological replicate using hierarchical clustering to cluster the FPKM values of genes.
Genes of interest relating to chondrocyte hypertrophy and cartilage homeostasis were identified.

[1] = tested on: primary equine articular chondrocytes; experiment: Primary equine articular chondrocytes in chondrogenesis and IL1β OA disease model: gene expression; type: cell-based; conditions: 100 nM, N=2
Experimental: Articular cartilage was isolated, placed into a petri dish containing phosphate buffer saline (PBS) supplemented with 2% Ab/Am (PBS-Ab/Am) and transferred to a laminar flow hood for processing. Cartilage shavings were minced using a sterile scalpel to approximately 1 mm^3 and washed in fresh PBS-Ab/Am by centrifugation at 500×g for 10 minutes. Supernatant was removed and the cartilage pellet resuspended in 5 ml TrypLE™ (Gibco) before incubation at 37° C. for 10 minutes with gentle agitation. Dissociated cartilage fragments were pelleted and washed to remove excess TrypLE and resuspended in DMEM-complete media (DMEM/F12 (Gibco), 1% Ab/Am, 10% FBS) supplemented with 2 mg/ml Collagenase Type II and incubated overnight at 37° C. with gentle agitation. The cartilage digest was pelleted, washed and subsequently resuspended in DMEM-complete. Released cells were counted using a haematocytometer and seeded at 10,000 cells per cm^2. The cultures were incubated at 37° C., 5% CO2 in a humidified incubator for 2 days before refreshing DMEM-complete every 2 days until confluency. For differentiation experiments, primary chondrocytes were differentiated in DMEM/F12 containing 2% FBS, 1% Ab/Am, 1× Insulin-Transferrin-Selenium premix, 10 ng/ml TGFβ3 (primary chondrocyte differentiation media).
Additional experiments were carried out on primary chondrocytes (equine, canine and human) and ihMSC (TERT immortalised human mesenchymal stromal cell line) to investigate whether CDK8i protects from IL-1β induced degradation when added throughout the entirety of differentiation/IL-1β treatment. Briefly, ihMSCs were seeded at a density of 5×10^4 cells per 10 μl micromass and differentiated in ihMSC chondrogenic media (1% FBS, 1% Ab/Am, 1× Insulin-Transferrin-Selenium premix, 10 μM Y-27632, 100 nM dexamethasone, 50 μg/ml ascorbic acid, 20 ng/ml TGF-β3 (Peprotech)). Primary chondrocytes were seeded at 2.7×10^5 cells per 10 μl micromass and differentiated in primary chondrocyte differentiation media. All micromasses were differentiated for 12 days in the presence of 100 nM […] or DMSO. Some micromasses were processed for gene expression analysis/alcian blue staining on day 12, whilst others were treated with IL-β media (1% FBS, 1% Ab/Am, 10 ng/ml IL-1B) and CDK8i for 48-hours before processing for alcian blue staining/gene expression analysis on day 14 as previously described.

[2] = tested on: hypertrophic ATDC5 micromasses; experiment: Metabolic analysis (MitoStress Test, Seahorse XF) of hypertrophic ATDC5 micromasses; type: cell-based, mouse; conditions: 1 μM
Experimental: This higher dependency on glycolysis for energy production is linked to enhanced catabolic processes, therefore reducing glycolysis has been proposed as a therapeutic approach for OA (Tan et al. (2022) “A new strategy for osteoarthritis therapy: Inhibition of glycolysis”. Front Pharmacol. 2022 Nov. 10; 13:1057229. doi: 10.3389/fphar.2022.1057229.). To assess energy metabolism of hypertrophic ATDC5 cells in the presence of CDK8i, 2 μl micromasses were seeded onto a Seahorse XF HS Miniplate (Agilent). Micromasses were differentiated in the presence of MSC2530818 as previously described for 1 week before switching to mineralisation media containing MSC2530818 for 24 hours. The MitoStress Test (Agilent) was carried out on hypertrophic micromasses using 1.5 μM oligomycin, 0.5 μM […] and 0.25 μM FCCP which measured real-time extracellular acidification and oxygen consumption rate. Analysis via the Agilent Seahorse Analytics platform basal oxygen consumption rate and glycolysis measurements.

Compound: CN(C)C(=O)Cn1cc(-c2ccc(-c3cncc4ccccc34)cc2)cn1 [BI1347]
- enrichment of downregulated biological process: innate immune response (ATDC5 micromasses; day 7, Gene Ontology): 3 fold
- enrichment of downregulated biological process: response to cytokines (ATDC5 micromasses; day 7, Gene Ontology): 3 fold
- enrichment of downregulated biological process: response to interferon-beta (ATDC5 micromasses; day 7, Gene Ontology): 15 fold
- enrichment of upregulated biological process: Chondrocyte differentiation (ATDC5 micromasses; day 7, Gene Ontology): 6 fold
- enrichment of upregulated biological process: Collagen fibril organisation (ATDC5 micromasses; day 7, Gene Ontology): 10 fold
- enrichment of upregulated biological process: cartilage development (ATDC5 micromasses; day 7, Gene Ontology): 5.5 fold
- enrichment of upregulated biological process: extracellular matrix organisation (ATDC5 micromasses; day 7, Gene Ontology): 5 fold
- Log2 Fold Change ACAN (ATDC5 micromasses; RNA-Seq, day 7): 2.40
- Log2 Fold Change ADAMT S4 (ATDC5 micromasses; RNA-Seq, day 7): −1.58
- Log2 Fold Change AXIN2 (ATDC5 micromasses; RNA-Seq, day 7): −2.38
- Log2 Fold Change BARX2 (ATDC5 micromasses; RNA-Seq, day 7): 6.42
- Log2 Fold Change BGLAP (ATDC5 micromasses; RNA-Seq, day 7): −1.42
- Log2 Fold Change COL2A1 (ATDC5 micromasses; RNA-Seq, day 7): 2.69
- Log2 Fold Change COL9A3 (ATDC5 micromasses; RNA-Seq, day 7): 4.44
- Log2 Fold Change COL 13A1 (ATDC5 micromasses; RNA-Seq, day 7): −4.99
- Log2 Fold Change CPA5 (ATDC5 micromasses; RNA-Seq, day 7): 7.57
- Log2 Fold Change CPM (ATDC5 micromasses; RNA-Seq, day 7): 6.76
- Log2 Fold Change F5 (ATDC5 micromasses; RNA-Seq, day 7): 6.76
- Log2 Fold Change FGFR3 (ATDC5 micromasses; RNA-Seq, day 7): 1.75
- Log2 Fold Change GALNT17 (ATDC5 micromasses; RNA-Seq, day 7): 6.56
- Log2 Fold Change GDF5 (ATDC5 micromasses; RNA-Seq, day 7): 2.39
- Log2 Fold Change GREM1 (ATDC5 micromasses; RNA-Seq, day 7): 1.68
- Log2 Fold Change IBSP (ATDC5 micromasses; RNA-Seq, day 7): −6.06
- Log2 Fold Change IHH (ATDC5 micromasses; RNA-Seq, day 7): −2.65
- Log2 Fold Change IL-6 (ATDC5 micromasses; RNA-Seq, day 7): −3.23
- Log2 Fold Change ISG15 (ATDC5 micromasses; RNA-Seq, day 7): −6.47
- Log2 Fold Change KLK11 (ATDC5 micromasses; RNA-Seq, day 7): 6.45
- Log2 Fold Change MATN1 (ATDC5 micromasses; RNA-Seq, day 7): 5.88
- Log2 Fold Change MATN3 (ATDC5 micromasses; RNA-Seq, day 7): 5.87
- Log2 Fold Change MEF2C (ATDC5 micromasses; RNA-Seq, day 7): −1.58
- Log2 Fold Change NOG (ATDC5 micromasses; RNA-Seq, day 7): 2.08
- Log2 Fold Change NOSTRIN (ATDC5 micromasses; RNA-Seq, day 7): −2.00
- Log2 Fold Change P2RY10 (ATDC5 micromasses; RNA-Seq, day 7): 6.40
- Log2 Fold Change PHLDA2 (ATDC5 micromasses; RNA-Seq, day 7): 6.62
- Log2 Fold Change SMOC3 (ATDC5 micromasses; RNA-Seq, day 7): 2.71
- Log2 Fold Change SOX5 (ATDC5 micromasses; RNA-Seq, day 7): 1.16
- Log2 Fold Change SOX6 (ATDC5 micromasses; RNA-Seq, day 7): 1.11
- Log2 Fold Change SOX8 (ATDC5 micromasses; RNA-Seq, day 7): 2.65
- Log2 Fold Change TMEM119 (ATDC5 micromasses; RNA-Seq, day 7): −4.98
- log2FoldChange GRHL3 (ATDC5 micromasses; RNA-Seq, day 7): −7.66
- log2FoldChange MX2 (ATDC5 micromasses; RNA-Seq, day 7): −7.03
- log2FoldChange OAS1A (ATDC5 micromasses; RNA-Seq, day 7): −7.64
- log2FoldChange OAS2 (ATDC5 micromasses; RNA-Seq, day 7): −11.27
- log2FoldChange OAS3 (ATDC5 micromasses; RNA-Seq, day 7): −7.22
- log2FoldChange OASL1 (ATDC5 micromasses; RNA-Seq, day 7): −10.46
- log2FoldChange RSAD2 (ATDC5 micromasses; RNA-Seq, day 7): −7.12
- log2FoldChange SLC36A2 (ATDC5 micromasses; RNA-Seq, day 7): −8.53
- log2FoldChange TRIM30D (ATDC5 micromasses; RNA-Seq, day 7): −7.12

Compound: Cc1n[nH]c2ncc(C(=O)N3CCC[C@H]3c3ccc(Cl)cc3)cc12 [MSC2530818]
- ADAMTS5 gene expression, reduction vs DMSO ([1]; OA disease model (+IL1β)): 2.7 fold
- CNMD gene expression, increase vs DMSO ([1]; OA disease model (+IL1β)): 70 fold
- COL2A1 gene expression, increase vs DMSO ([1]; OA disease model (+IL1β)): 11 fold
- SMOC2 gene expression, increase vs DMSO ([1]; OA disease model (+IL1β)): 3 fold
- ACAN gene expression, increase vs DMSO ([1]; OA disease model (+IL1β), ns): 1.8 fold
- MATN3 gene expression vs DMSO ([1]; OA disease model (+IL1β), ns): 2 fold
- TIMP4 gene expression, increase vs DMSO ([1]; OA disease model (+IL1β), ns): 1.14 fold
- CNMD gene expression, increase vs DMSO ([1]; chondrogenic (−IL1β)): 41 fold
- SMOC2 gene expression, increase vs DMSO ([1]; chondrogenic (−IL1β)): 2.3 fold
- TIMP4 gene expression vs DMSO ([1]; chondrogenic (−IL1β)): no change
- ACAN gene expression, increase vs DMSO ([1]; chondrogenic (−IL1β), ns): 2 fold
- COL2A1 gene expression, decrease vs DMSO ([1]; chondrogenic (−IL1β), ns): 1.25 fold
- MATN3 gene expression vs DMSO ([1]; chondrogenic (−IL1β), ns): 2 fold
- decrease in total basal glycolysis (inferred from OCR/ECAR measurements) vs DMSO [2]: 37%
- extracellular acidification rate (ECAR) vs DMSO ([2]; across the time course measured): lower than DMSO control
- total basal oxygen consumption rate (OCR) vs DMSO ([2]; p=0.5085): no significant difference
